Measurements from patent US8778990B2, “Betulinic acid derivatives and methods of use thereof” (Trustees of Dartmouth College, priority 2008, dated 2014).
pIC50: −log10 of the molar value.

How the values were obtained:
RAW264.7 macrophages = test: Inhibition of IFNγ-induced NO production (Griess reagent); assay type: cell-based; settings: Mus musculus; RAW264.7, 20 ng/mL IFNγ, 2 h pre-treatment, 24 h
Protocol: RAW264.7 macrophages were pre-treated with DMSO or drugs at various concentrations (nM) for 2 hours, and subsequently treated with 20 ng/ml IFNγ for 24 hours. NO concentration in media was determined using a Griess reagent system; cell viability was determined using WST-1 reagent. The betulinic acid derivatives are identified by their TP numbers, as shown herein and described in Example 5.
Nitric Oxide Production and Cell Viability. RAW264.7 macrophages were pre-treated with DMSO or drugs for 2 hours, and subsequently treated with recombinant mouse IFN-γ (Sigma) for 24 hours. NO concentration in media was determined using the Griess reagent system (Promega). Cell viability was determined using WST-1 reagent (Roche).

[1] = TP levels in mouse brain after dietary dosing (LC/MS); assay type: in vivo; settings: CD-1 mice fed 200 or 400 mg/kg diet for 3.5 days; compared with TP-319
Protocol: CD-1 mice were fed either 200 or 400 mg/kg diet of either TP-319 or TP-500 for 3.5 days, and TP levels in the brains of the mice were analyzed by LC/MS. The structures of TP-319 and TP-500 are provided herein.

SMILES: C=C(C)[C@@H]1CC[C@]2(C(=O)n3ccnc3)CC[C@]3(C)[C@H](CC[C@@H]4[C@@]5(C)C=C(C#N)C(=O)C(C)(C)[C@@H]5CC[C@]43C)[C@@H]12 [TP-292]
- pIC50 (RAW264.7 macrophages): 7.00 to 7.15

SMILES: C=C(C)[C@@H]1CC[C@]2(C(=O)NCC(F)F)CC[C@]3(C)[C@H](CC[C@@H]4[C@@]5(C)C=C(C#N)C(=O)C(C)(C)[C@@H]5CC[C@]43C)[C@@H]12 [TP-343, 2-Cyano-N-(2,2-difluoroethyl)-3-oxolupa-1,20(29)-dien-28-amide]
- pIC50 (RAW264.7 macrophages): 6.89

SMILES: CC1(C)CC[C@]2(C(=O)NCC(F)(F)F)CC[C@]3(C)[C@H](C(=O)C=C4[C@@]5(C)C=C(C#N)C(=O)C(C)(C)[C@@H]5CC[C@]43C)[C@@H]2C1 [TP-500, reference compound]
- concentration in the brain [1]: significantly higher concentration in the brain than TP-319

SMILES: C=C(C)[C@@H]1CC[C@]2(C(=O)NCC)CC[C@]3(C)[C@H](CCC4[C@@]5(C)C=C(C#N)C(=O)C(C)(C)[C@@H]5CC[C@]43C)[C@@H]12 (stereo partly shown) [TP-321, reference compound]
- pIC50 (RAW264.7 macrophages): 7.06

SMILES: C=C(C)[C@@H]1CC[C@]2(C(=O)NCCF)CC[C@]3(C)[C@H](CC[C@@H]4[C@@]5(C)C=C(C#N)C(=O)C(C)(C)[C@@H]5CC[C@]43C)[C@@H]12 [TP-344, 2-Cyano-N-(2-fluoroethyl)-3-oxolupa-1,20(29)-dien-28-amide]
- pIC50 (RAW264.7 macrophages): 6.74

SMILES: C=C(C)[C@@H]1CC[C@]2(C(=O)NCC(F)(F)F)CC[C@]3(C)[C@H](CC[C@@H]4[C@@]5(C)C=C(C#N)C(=O)C(C)(C)[C@@H]5CC[C@]43C)[C@@H]12 [TP-342, 2-Cyano-N-(2,2,2-trifluoroethyl)-3-oxolupa-1,20(29)-dien-28-amide]
- pIC50 (RAW264.7 macrophages): 6.42

SMILES: C=C(C)[C@@H]1CC[C@]2(C#N)CC[C@]3(C)[C@H](CC[C@@H]4[C@@]5(C)C=C(C#N)C(=O)C(C)(C)[C@@H]5CC[C@]43C)[C@@H]12 [TP-345, 2-Cyano-3-oxolupa-1,20(29)-dien-28-onitrile]
- pIC50 (RAW264.7 macrophages): 6.80 to 8.00
